These results are taken from patent US5756471A, “Use of a sophorolipid to provide free radical formation inhibiting activity or elastase inhibiting activity” (Institut Francais du Petrole, priority 1994, dated 1998).

The subject of one data set is human fibroblasts. The data set can be described thus: Anti-radical effect on human fibroblasts (UVA). The note with it: 200 μg/ml, in the absence of UVA.
The next data set has as its system elastase. The data set can be described thus: Anti-elastasic activity on human skin section. The text has this:
The elastin substrate was that which exists in human skin.
That result was expected and acted to validate the test.

For a further data set, the target named is pancreatic elastase (Sus scrofa, UniProt P00772). Description: Anti-elastasic activity, test in semi-solid medium (elastin in gelose). The note with it: 10 mM. It is filed as biochemical. On the procedure:
Principle: Inhibition of the degradation of elastin contained in gelose by elastase
The anti-elastase activity of acid sophorolipids was evaluated using a semi-quantitative technique. The enzymatic solution, associated or otherwise with the test compound or with the reference molecule, was deposited in hollows in gelose containing the substrate, elastin.
The enzyme diffused into the gelose and digested the elastin.
This phenomenon was shown as a lightening of the gelose in the digestion zone, which zone was measured.

The nature of data set [1]: Anti-radical activity (EPR method). The note with it: hydroxyl radical EPR signal. On the procedure:
The anti-radical effect of crude and acid sophorolipids was evaluated with respect to a free radical derived from oxygen and which is particularly important in pathology, namely the hydroxyl radical. Electron paramagnetic resonance spectrometry (EPR) was used. A molecule which traps free radicals reduces the signal. EPR measurements were carried out using a Brucker ECS106 spectrometer at ambient temperature. The hydroxyl radical (OH^.) was produced by photolysis (UVB) of hydrogen peroxide in aqueous solution. Mannitol was used as a reference molecule (positive control).

pancreatic elastase, sequence (P00772 27-266): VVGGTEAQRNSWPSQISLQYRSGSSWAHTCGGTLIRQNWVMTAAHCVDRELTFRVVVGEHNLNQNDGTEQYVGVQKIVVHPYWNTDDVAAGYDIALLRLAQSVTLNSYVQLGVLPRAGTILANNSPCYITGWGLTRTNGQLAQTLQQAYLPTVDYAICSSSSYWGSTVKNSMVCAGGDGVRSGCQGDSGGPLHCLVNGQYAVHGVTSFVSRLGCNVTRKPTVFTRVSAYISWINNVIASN

As for `CC(=O)Oc1c(C)c(C)c2c(c1C)CCC(C)(CCC[C@H](C)CCC[C@H](C)CCCC(C)C)O2` (some centres unmarked) [Acetate of vitamin E, acetate of vitamin E], in the data set on human fibroblasts, the toxicity for cells entry is given as “not toxic”.

On to `[Cl][Hg][Cl]` [HgCl2, mercury chloride], for which the “Degradation of elastin fibres” value with elastase (0.125 % (w/v)) is “None”. The “inhibition of elastase activity” value in the data set on elastase (reference molecule) is reported as “dose-dependent manner”. The enzymatic inhibition result at pancreatic elastase is “total”. Moreover, the “Diameter of digestion zone” value at pancreatic elastase (6 hours incubation) and on pancreatic elastase (21 hours incubation) was 0 cm each time.

For the molecule `OC[C@@H](O)[C@@H](O)[C@H](O)[C@H](O)CO` [Mannitol], the trapping activity in data set [1] (10 mM) was determined as 98%. In addition, the “% anti-radical protection” value in data set [1] (0.182% (w/v)) came to 98%.
